The values below come from patent EP1921115B1, “Use of 3-hydroxy-cyclohex-2-enone azo based dyes in optical layers” (Clariant Finance (BVI) Limited, priority 2006, dated 2008).

Common to all, as to assay type: physicochemical
A short description of series [1]: Thermal decomposition: decomposition point (DP). The conditions noted are these: sealed aluminum pan, 25 to 400°C, heating rate 10°C/min, nitrogen flow, single measurement. As to the method: For the determination of DP and HR, the compound is incorporated into a sealed aluminum pan. Analysis conditions are as following: Temperature range from 25 to 400°C, heating rate 10°C/min, nitrogen flow of 50 ml/min. Values are determined by single measurement.

Series [2] can be described thus: Solubility in 2,2,3,3 tetrafluoropropanol. The conditions noted are these: in 2,2,3,3 tetrafluoropropanol at 25 °C. An excerpt:
The solubilities were differentiated into three groups: A Good solubility (> 20 g / L) B Medium solubility (>= 10 and <= 20 g / L) C Poor solubility (<10 g / L)

Series [3] in a line: UV-vis spectra (λ max and ε). The conditions noted are these: dissolved in CH2Cl2, DMSO or in tfp. As to the method:
For UV-vis spectra, λ max and ε values of a compound are determined by using an UV-vis spectrophotometer, the compound was dissolved in CH2Cl2, DMSO or in tfp. The values are obtained by balancing the measurements performed on compound solutions at three different concentrations.

`CCOC(=O)C1C(O)=C(N=Nc2ccc(C)cc2[N+](=O)[O-])C(=O)CC1(C)C` (centres unmarked) [compound of formula (1)] registered a DP in series [1] of 282 °C. Moreover, in series [2], the Solubility result is on record as “A (Good solubility (> 20 g / L))”. Moreover, in series [3] (Table A, azo ligands), the “ε (at λ max)” value is 63 L/g/cm. Besides, the λ max in series [3] is reported as 427 nm.

Molecule `CCOC(=O)C1C(O)=C(N=Nc2cc([N+](=O)[O-])ccc2O)C(=O)CC1(C)C` (centres unmarked) [compound of formula (2)] returned a DP in series [1] of 253 °C. Moreover, the Solubility result in series [2] is given as “A (Good solubility (> 20 g / L))”. Moreover, the “ε (at λ max)” value in series [3] (Table A, azo ligands) is 52 L/g/cm. In series [3], the λ max came out at 411 nm.

In series [1], `CCOC(=O)C1C(O)=C(N=Nc2ccc(Cl)cc2[N+](=O)[O-])C(=O)CC1(C)C` (centres unmarked) [compound of formula (3)] gave a DP of 274 °C. The Solubility entry in series [2] was “A (Good solubility (> 20 g / L))”. Also, the “ε (at λ max)” value in series [3] (Table A, azo ligands) stood at 52 L/g/cm. The λ max in series [3] is listed as 421 nm.

`CCOC(=O)C1C(O)=C(N=Nc2ccccc2[N+](=O)[O-])C(=O)CC1(C)C` (centres unmarked) [compound of formula (4)] registered a DP in series [1] of 238 °C. The Solubility entry in series [2] is “B (Medium solubility (>= 10 and <= 20 g / L))”. Further, the “ε (at λ max)” value in series [3] (Table A, azo ligands) amounted to 52 L/g/cm. Besides, the λ max in series [3] is 424 nm.

Take `CCOC(=O)C1C(O)=C(N=Nc2ccc(S(C)(=O)=O)cc2[N+](=O)[O-])C(=O)CC1(C)C` (centres unmarked) [compound of formula (5)]: in series [1], the DP was 200 °C. Moreover, in series [2], the Solubility result was “A (Good solubility (> 20 g / L))”. Besides, in series [3] (Table A, azo ligands), the “ε (at λ max)” value amounted to 19 L/g/cm. Moreover, the λ max in series [3] is 384 nm.

With `CCOC(=O)C1C(O)=C(N=Nc2ccc(OC)cc2[N+](=O)[O-])C(=O)CC1(C)C` (centres unmarked) [compound of formula (6)], the DP in series [1] is 273 °C. The Solubility entry in series [2] was “B (Medium solubility (>= 10 and <= 20 g / L))”. Besides, the “ε (at λ max)” value in series [3] (Table A, azo ligands) came out at 56 L/g/cm. In series [3], this molecule yielded a λ max of 448 nm.

For the molecule `CCOC(=O)C1C(O)=C(N=Nc2ccc(C(F)(F)F)cc2[N+](=O)[O-])C(=O)CC1(C)C` (centres unmarked) [compound of formula (7)], the DP in series [1] stood at 276 °C. Further, in series [2], the Solubility entry is “A (Good solubility (> 20 g / L))”. Besides, the “ε (at λ max)” value in series [3] (Table A, azo ligands) is 32 L/g/cm. In addition, in series [3], the λ max stood at 399 nm.

In series [1], `CCOC(=O)C1C(O)=C(N=Nc2c(Br)cc([N+](=O)[O-])cc2C#N)C(=O)CC1(C)C` (centres unmarked) [compound of formula (8)] returned a DP of 226 °C. In series [2], the Solubility entry was “B (Medium solubility (>= 10 and <= 20 g / L))”. For the same molecule, the “ε (at λ max)” value in series [3] (Table A, azo ligands) amounted to 55 L/g/cm. Moreover, the λ max in series [3] was 396 nm.

`CCOC(=O)C1C(O)=C(N=Nc2ccc([N+](=O)[O-])cc2Br)C(=O)CC1(C)C` (centres unmarked) [compound of formula (9)] yielded a DP in series [1] of 285 °C. The Solubility result in series [2] is recorded as “A (Good solubility (> 20 g / L))”. Moreover, the “ε (at λ max)” value in series [3] (Table A, azo ligands) was 72 L/g/cm. The λ max in series [3] stood at 400 nm.

`CCOC(=O)C1C(O)=C(N=Nc2c(C)cc(C)cc2C)C(=O)CC1(C)C` (centres unmarked) [compound of formula (10)] showed a DP in series [1] of 248 °C. In addition, the Solubility result in series [2] is reported as “A (Good solubility (> 20 g / L))”. The “ε (at λ max)” value in series [3] (Table A, azo ligands) was found to be 55 L/g/cm. In addition, the λ max in series [3] came out at 413 nm.

In turn, `CCOC(=O)C1C(O)=C(N=Nc2ccc([N+](=O)[O-])cc2OC)C(=O)CC1(C)C` (centres unmarked) [compound of formula (11)] came in with a DP in series [1] of 288 °C. In addition, in series [2], the Solubility result is listed as “A (Good solubility (> 20 g / L))”. The “ε (at λ max)” value in series [3] (Table A, azo ligands) was 44 L/g/cm. Moreover, in series [3], the λ max stood at 432 nm.

For the molecule `CCOC(=O)C1C(O)=C(N=Nc2cc(OC)c(S(N)(=O)=O)cc2OC)C(=O)CC1(C)C` (centres unmarked) [compound of formula (12)], the DP in series [1] was 279 °C. In series [2], the Solubility result is recorded as “A (Good solubility (> 20 g / L))”. The “ε (at λ max)” value in series [3] (Table A, azo ligands) was found to be 25 L/g/cm. In series [3], the λ max is given as 438 nm.

Take `Cc1ccc(N=NC2=C(O)C(C#N)C(C)(C)CC2=O)c([N+](=O)[O-])c1` (centres unmarked) [compound of formula (13)]: the DP in series [1] came to 270 °C. Further, the Solubility result in series [2] is reported as “C (Poor solubility (<10 g / L))”. In addition, the “ε (at λ max)” value in series [3] (Table A, azo ligands) is 52 L/g/cm. The molecule further came in with a λ max in series [3] of 442 nm.

With `CC1(C)CC(=O)C(N=Nc2ccc(Cl)cc2[N+](=O)[O-])=C(O)C1C#N` (centres unmarked) [compound of formula (14)], in series [1], the DP came to 222 °C. Moreover, in series [2], the Solubility entry was “A (Good solubility (> 20 g / L))”. Further, the “ε (at λ max)” value in series [3] (Table A, azo ligands) came to 42 L/g/cm. The molecule also gave a λ max in series [3] of 437 nm.

In the case of `COc1ccc(N=NC2=C(O)C(C#N)C(C)(C)CC2=O)c([N+](=O)[O-])c1` (centres unmarked) [compound of formula (15)], the DP in series [1] worked out at 154 °C. The Solubility result in series [2] is on record as “C (Poor solubility (<10 g / L))”. In series [3] (Table A, azo ligands), the “ε (at λ max)” value stood at 50 L/g/cm. Besides, the λ max in series [3] is listed as 458 nm.

As to `CC1(C)CC(=O)C(N=Nc2cc([N+](=O)[O-])ccc2O)=C(O)C1C#N` (centres unmarked) [compound of formula (16)], in series [1], the DP worked out at 249 °C. Further, the Solubility entry in series [2] is recorded as “C (Poor solubility (<10 g / L))”. Also, the “ε (at λ max)” value in series [3] (Table A, azo ligands) came to 17 L/g/cm. The same molecule registered a λ max in series [3] of 423 nm.

Consider `CCOC(=O)C1C(O)=C(N=Nc2c(F)c(F)c(F)c(F)c2F)C(=O)CC1(C)C` (centres unmarked) [compound of formula (17)], for which the DP in series [1] stood at 157 °C. The Solubility entry in series [2] was “A (Good solubility (> 20 g / L))”. Besides, the “ε (at λ max)” value in series [3] (Table A, azo ligands) amounted to 29 L/g/cm. This molecule registered a λ max in series [3] of 326 nm.

Turning to `CCOC(=O)C1C([O][Cu][O]C2=C(N=Nc3ccc([N+](=O)[O-])cc3OC)C(=O)CC(C)(C)C2C(=O)OCC)=C(N=Nc2ccc([N+](=O)[O-])cc2OC)C(=O)CC1(C)C` (centres unmarked) [compound of formula (18)], the DP in series [1] is 276 °C. Also, the Solubility entry in series [2] is recorded as “C (Poor solubility (<10 g / L))”. Further, the “ε (at λ max)” value in series [3] (Table B, metal complexes) amounted to 50 L/g/cm. In series [3], this molecule registered a λ max of 431 nm.

`CCOC(=O)C1C([O][Ni][O]C2=C(N=Nc3ccc([N+](=O)[O-])cc3OC)C(=O)CC(C)(C)C2C(=O)OCC)=C(N=Nc2ccc([N+](=O)[O-])cc2OC)C(=O)CC1(C)C` (centres unmarked) [compound of formula (19)] yielded a DP in series [1] of 278 °C. The Solubility entry in series [2] is “A (Good solubility (> 20 g / L))”. Further, the “ε (at λ max)” value in series [3] (Table B, metal complexes) turned out to be 67 L/g/cm. The λ max in series [3] came to 442 nm.

In turn, `CCOC(=O)C1C([O][Cu][O]C2=C(N=Nc3cc(OC)c(S(N)(=O)=O)cc3OC)C(=O)CC(C)(C)C2C(=O)OCC)=C(N=Nc2cc(OC)c(S(N)(=O)=O)cc2OC)C(=O)CC1(C)C` (centres unmarked) [compound of formula (20)] returned a DP in series [1] of 314 °C. The Solubility entry in series [2] is “B (Medium solubility (>= 10 and <= 20 g / L))”. In addition, the “ε (at λ max)” value in series [3] (Table B, metal complexes) was 42 L/g/cm. For the same molecule, in series [3], the λ max amounted to 441 nm.
